From patent publication US20170216240A1, “METHODS FOR MODULATING IKS CHANNEL ACTIVITY” (UNIVERSITY OF MIAMI, priority 2014, published 2017)

Columns and labels:
[1] = in vitro; conditions: human, Caco-2
[2] = system: intact guinea pig hearts; test: Restoration of QT interval in intact hearts with E4031-induced Long QT; conditions: ECG and ventricular surface action potential
From the text: Long QT syndrome was induced in intact guinea pig hearts by administration of the drug E4031, a HERG channel blocker.

[3] = biological target: Kv7.1 (Homo sapiens, UniProt P51787); test: G(V) shift of Kv7.1 expressed in Xenopus laevis oocytes, two-electrode voltage-clamp; format: cell-based; conditions: Kv7.1, 70 μM, pH 7.4
From the text: cDNAs encoding human Kv7.1 (GEnBAnk Acc. No. NM_000218) and KCNE1 (NM_000219) were subcloned into the expression vectors pGEM or pXOOM, containing the 5′- and 3′-untranslated regions for Xenopus laevis β-globin as well as a poly-A segment (Jespersen et al., Biotechniques 32, 536-538, 540 (2002)). The truncated KCNE1 construct KCNE1ΔC was constructed by introducing a Stop codon at position 67 using Quikchange site-directed mutagenesis kit (Qiagen). The construct was fully sequenced to ensure proper mutation and absence of unwanted mutations (sequencing by Genewiz). The concatemers E1-Kv7.1-Kv7.1 and E1-Kv7.1 were provided by Dr. R. S. Kass at Columbia University, and can be prepared as described in Chan et al. Journal of General Physiology 132(2), 135-144, (2012)). The E1-Kv7.1 construct was made by linking the C-terminus of KCNE1 to the N-terminus of KCNQ1. The E1-Kv7.1-Kv7.1 construct was made by digesting the E1-Kv7.1 and a Kv7.1-Kv7.1 dimer with Xho1 and inserting the 2-kb fragment from the Kv7.1-Kv7.1 dimer digest into the cut KCNE1-Kv7.1 construct. The DNA encoding E1-Kv7.1-Kv7.1 and E1-Kv7.1 were in the pGEM vector and contained mutations to make the constructs suitable for voltage-clamp fluorometry recordings (Wang et al., J Biol Chem 273, 34069-34074 (1998)). The original KCNE1 and Kv7.1 sequences were therefore removed, one at a time, from the pGEM vector using different restriction enzymes (New England Biolabs). Sequences were separated using gel electrophoresis and harvested using Qiagen gel extraction kit. Corresponding wild type sequences were ligated into the construct using T4 Ligase (New England Biolabs). To ensure correct sequence the constructs were sequenced (Genewiz) and tested with different restriction enzymes in combination with gel electrophoresis to measure length and conformation of the gene. cRNA for injection of all constructs was prepared from linearized DNA using the T7 mMessage mMachine transcription kit (Ambion) according to the manufactures instructions. RNA quality was checked by gel electrophoresis, and RNA concentrations were quantified by UV spectroscopy.
Xenopus laevis oocytes were isolated and maintained (Bentzen, B. H. et al. Neuropharmacology 51, 1068-1077 (2006)). Approximately 50 nl cRNA (50 ng Kv7.1, KCNE1-Kv7.1-Kv7.1 or KCNE1-Kv7.1 alternatively 25 ng Kv7.1 together with 8 ng KCNE1 or KCNE1ΔC) was injected into each oocyte using a Nanojet microinjector (Drummond). Electrophysiological experiments were made 2-5 days after injection. Currents were measured at room temperature with the two-electrode voltage-clamp technique (CA-1B Dagan amplifier). Currents were sampled at 1-3.3 kHz, filtered at 500 Hz, and not leakage corrected. […] A control solution containing (in mM): 88 NaCl, 1 KCl, 15 HEPES, 0.4 CaCl2, and 0.8 MgCl2 was used. NaOH was added to adjust pH to 7.4, yielding a final sodium concentration of about 100 mM. The holding voltage was generally set to −80 mV. Activation curves were generally elicited by stepping to test voltages between −110 and +60 mV (2-4 s durations and 10 mV increments) followed by a tail voltage of −30 mV. For recordings of Kv7.1 at pH 9 and pH 10, the holding voltage was set to more negative voltages because the largest DHA-induced shifts induced channel opening already at −80 mV. […] Therefore, in arachidonyl amine experiments a brief hyperpolarizing pulse of 50 ms to −120 mV was introduced between the test voltage and the tail voltage to relief the channels from inactivation.
Test compounds were dissolved in 99.5% ethanol to a concentration of 100 mM and stored at −20° C. (Börjesson et al., Biophys J 95, 2242-2253 (2008); Börjesson et al., Biophys J 98, 396-403 (2010)). Shortly before experiments, test compounds were diluted in control solution to the desired test concentration. Pure control solution was added to the bath using a gravity-driven perfusion system. […]

[4] = system: Caco-2 cells

- efflux ratio [1]: 1.9
- ΔV1/2 ± SEM (G(V) shift) ([3]; listed as N-arachidonoyl taurine): about −30 mV
- ΔV1/2 ± SEM (G(V) shift) ([3]; listed as N—AT): −26.2 ± 2.7 mV
- permeability coefficient (Papp) [4]: 22×10^−6 cms^−1
Compound: CCCCC/C=C\C/C=C\C/C=C\C/C=C\CCCC(=O)NCCS(=O)(=O)O [N-AT, N-arachidonoyl taurine]
- QT interval in hearts with prolonged QT induced by E4031 [2]: restores the QT interval
